{"source": "patent US8889662B2", "about": "“Method to alter sex ratios in avian offspring” (University of Georgia Research Foundation, Inc., priority 2009, dated 2014)", "key": {"avian species": {"tested_on": "avian species", "conditions": "long-term silastic implants, literature; cited from earlier work"}, "[1]": {"tested_on": "Hyline W-36 and Brown layer hens", "test": "Example 3: ovulation and oviposition rates after injection, laying hens", "format": "in vivo, chicken", "conditions": "1.5 mg subcutaneously", "procedure": "Injection treatments were administered to hens subcutaneously in the back of the neck five hours prior to the predicted time of ovulation with one of the following treatments: 0.5 ml of control peanut oil (CONT) or 1.5 mg corticosterone dissolved in 0.5 ml of peanut oil (CORT). Ovulated follicles took 24 h to pass through the remainder of the reproductive tract and were collected at oviposition (FIG. 6). Eggs were also collected on the day prior to injections and were considered the unmanipulated group (UN). […] Eggs were incubated for 10 days at 37.5° C. and 58% relative humidity in a Natureform incubator."}, "[2]": {"conditions": "chickens, previous work; cited from earlier work"}, "[3]": {"tested_on": "zebra finch (Taeniopygia guttata)", "test": "Example 2: disruption of ovulation, oviposition and embryo development after injection, zebra finches", "format": "in vivo", "conditions": "20 ug injection, relative to control and uninjected groups", "procedure": "Zebra finch (Taeniopygia guttata) pairs obtained from a breeding colony maintained at The University of Georgia were housed in individual cages and provided feed and water ad libidumn. Birds were kept under a 14 hour (h) light (L):10 h dark (D) light schedule. Egg-laying was monitored daily and eggs marked to record sequence order. Females were injected intraperitoneally after the first or second egg of the clutch was laid with one of three treatments: 20 μg of CORT dissolved in 50 μl peanut oil and 10% ethanol (CORT), 20 μg of progesterone dissolved in […] and 10% ethanol (P), or 50 μl of control peanut oil (C). A fourth set of females received no injection treatment (UN). […] The follicle ovulating 5 hours after injection, was laid approximately 36 hours after injection (FIG. 3). Ovulating follicles exposed to treatments were laid as the 3rd or 4th egg in the sequence (3rd egg if treatment was administered on the day the 1st egg was laid and the 4th egg in the sequence if treatment was administered on the day the 2nd egg was laid). Eggs were allowed to incubate in the nest for 8-12 days prior to collection to allow sufficient embryonic development for DNA extraction and molecular sexing analyses. Occasionally these treatments disrupted the oviposition immediately following the injection. Females that delayed oviposition after treatment were excluded from analysis because it was not possible to determine whether the egg collected the following day was from the ovulation event that occurred immediately following injection or from a delayed oviposition of the follicle ovulated the day prior to injection. Females that delayed oviposition were allowed to complete the clutch after which the treatment was repeated during the next clutch. […] Only 1/10 females treated with progesterone laid successfully. For this reason, progesterone treatments were eliminated from further analyses."}, "[4]": {"test": "Plasma corticosterone in hens after CORT injections (FIG. 9)", "format": "in vivo, chicken", "conditions": "0.5 mg CORT in peanut oil (physiologically high dose)", "procedure": "FIG. 9. Plasma corticosterone concentrations in hens after injections of 1.5 mg CORT, 0.5 mg CORT, oil control, and uninjected.\nTo test for a dose-dependent effect of CORT on sex ratios, female leghorns will be housed in layer cages, provided access to food and water ad libitum and will be randomly divided into one of seven treatment groups (n=72 each). […] To test whether CORT is a mediator in the sex determination process, one group from each of these treatment sets will also receive a dose of RU-486 (0.5 mg dissolved in 500 ul dH20), a glucocorticoid receptor blocker, administered 15 min prior to the injection treatment itself. […] As a result, treatment with RU-486 should not interrupt normal laying cycles. One final group will receive no injection treatment."}, "[5]": {"tested_on": "Hyline W-36 and Brown layer hens", "test": "Example 3: offspring sex ratio after acute corticosterone injection five hours before ovulation, laying hens", "format": "in vivo, chicken", "procedure": "Hyline W-36 and Brown layer hens were housed in individual layer cages in a single room, had ad libitum access to food and water, and maintained on a 14 h L:10 h D light schedule. Hens were artificially inseminated biweekly with pooled semen from 8 roosters to ensure egg fertilization. Hens were monitored throughout the day for egg-laying and eggs were collected manually every 2 h during peak-laying hours. Previous studies in laying hens have shown that ovulation occurs within 30 minutes of oviposition (Johnson, A. L. Reproduction in the female, in Sturkie's Avian Physiology. G. C. Whittow, Editor. 2000, Academic Press: New York, N.Y. p. 569-596); therefore, egg laying patterns can be used to predict the timing of ovulation.\nInjection treatments were administered to hens subcutaneously in the back of the neck five hours prior to the predicted time of ovulation with one of the following treatments: 0.5 ml of control peanut oil (CONT) or 1.5 mg corticosterone dissolved in 0.5 ml of peanut oil (CORT). Ovulated follicles took 24 h to pass through the remainder of the reproductive tract and were collected at oviposition (FIG. 6). […]\nStatistical Analysis. […] Plasma corticosterone concentrations were analyzed among treatment groups and time points using an ANOVA and differences among individual treatment groups were analyzed using Fisher's PLSD. […]"}}, "note": "Values joined by “and” are separate entries in the source; they are usually repeats but may differ in a detail not shown here. Equal values may be shown once.", "data": [{"smiles": "C[C@]12C[C@H](O)[C@H]3[C@@H](CCC4=CC(=O)CC[C@@]43C)[C@@H]1CC[C@@H]2C(=O)CO", "note": "[corticosterone]", "values": [{"measurement": "offspring sex ratio with long-term CORT elevation", "setting": "avian species", "result": "sex ratios were skewed significantly towards females"}, {"measurement": "effect on ovulation or oviposition rates", "setting": "[1]", "result": "Neither the control nor the corticosterone treatment had an effect on ovulation or oviposition rates"}, {"measurement": "duration of elevated CORT concentrations following injection", "setting": "[2]", "result": "approximately 90 minutes"}, {"measurement": "effect on oviposition, ovulation or visible development", "setting": "[3]; listed as CORT", "result": "not more likely to occur"}, {"measurement": "effect on oviposition, ovulation or visible development", "setting": "[3]; listed as Corticosterone", "result": "did not adversely affect oviposition or ovulation"}, {"measurement": "CORT concentrations reached", "setting": "[4]", "result": "below 40 ng/ml"}, {"measurement": "males produced (offspring sex ratio)", "setting": "[5]; 1.5 mg in 0.5 ml peanut oil subcutaneously five hours before ovulation, p=0.01 vs all hens the day before, p=0.72 vs control injection", "result": "~83% and 82.6%"}, {"measurement": "males produced after treatment compared to before treatment, same hens", "setting": "[5]; 1.5 mg, target versus pre-target eggs, p=0.02", "result": "produced significantly more males"}]}]}
